Test results taken from patent publication US20220402872A1, “PHOTOPOLYMERIZABLE ANTIBACTERIAL MONOMER” (UNIVERSITA' DEGLI STUDI DI TRIESTE, priority 2019, published 2022).

Assays:
Assay type in all cases: cell-based
S. Sanguis (ATCC 10556) = experiment: Determination of the minimum inhibitory concentration (MIC)
Method: (§1) A colony of bacterium taken from agar plate is inoculated in Brain Hearth Infusion medium (BHI) and grown overnight at 37° C. The next day, the bacteria are diluted in fresh medium containing the phenol red indicator, up to a density of 10^6 bacteria/mL.
(§2) A stock solution of 2 mg/mL of compound is prepared in BHI medium containing phenol red.
(§3) In a 96-well plate, the compound stock solution is diluted serially (the concentration is halved at each step) to obtain the following final concentrations after addition of the bacteria suspension: 1 mg/mL; 0.5 mg/mL; 0.25 mg/mL; 0.125 mg/mL; 0.065 mg/mL; 0.032 mg/mL; 0.016 mg/mL; 0.008 mg/mL; 0.004 mg/mL; 0.002 mg/mL; 0.001 mg/mL. A compound-free medium is used as a growth control. A volume of bacterial suspension equal to 0.5*10^6 bacteria/mL is added to each well containing the compound and the control. The dish is incubated at 37° C. for 24 hours. Bacterial growth in each well is detected by the phenol red, which turns from red to yellow following acidification of the medium induced by bacterial metabolism. The lowest concentration of the compound causing no evident color change corresponds to the MIC.
(§4) The compounds according to Examples 1, 3, 5, 6, and 7 were tested on bacterial strains different from S. mutans with the same methods described above, obtaining the MIC and MBC values reported in Table 2.

S. Aureus (ATCC 25923) = experiment: as above; conditions: Staphylococcus aureus, ATCC25923
Method: as §1, §2, §3, §4

E. coli (ATCC25922) = experiment: as above; conditions: Escherichia coli
Method: as §1, §2, §3, §4

S. Mitis (ATCC 49456) = experiment: as above; conditions: Streptococcus mitis, ATCC49456
Method: as §1, §2, §3, §4

[1] = tested on: primary cells from human dental pulp; experiment: Determination of the cytotoxicity (MTS assay); conditions: for maximum (tested) non-cytotoxic concentration: primary dental pulp cells
Method: Tested cells: primary from dental pulp in complete high glucose DMEM medium+1 mg ascorbic acid, seeded in 96-well dishes;
Cell viability detection method: MTS assay from Promega (CellTiter 96® AQueous One Solution Cell Proliferation Assay) colorimetric metabolic assay that allows to evaluate variations in the number of cells being a dye reduced by cellular dehydrogenases. The greater the number of cells, the greater the amount of reduced compound;
Execution time: 24 hours and 72 hours from treatment;
Negative control: cells seeded in complete DMEM medium (CNT) are used;
Number of samples: for 24 hours, 6 samples of each type; for 72 hours 8 samples of each type.
Procedure: Cells (6000/well) are seeded on a 96-well dish to form a monolayer at approximately 40% confluence. After 24 hours the medium is replaced by a medium in which the compound has previously been solubilized, sterilized by 0.22 micron filtration. Growth medium alone is used as a negative control (CNT). At the following 24 and 72 hours the colorimetric test is performed. The absorbance values for each sample are averaged and the standard deviation calculated. The percent viability is calculated on the negative control.
The compounds according to Examples 1, 5, 6, and 7 were tested in order to evaluate their cytotoxicity on primary cells from human dental pulp according to the “Determination of cytotoxicity” method described above, obtaining the values reported respectively in the following Tables 3, 4, 5, and 6. Cells were extracted from healthy third molars of patients after informed consent (Authorization Single Regional Committee FVG, study ID 2433, 29 Aug. 2018). After extraction, the stem cell nature was ascertained by evaluating the expression of the positive markers CD 90, CD 73, CD 29 and the negative markers CD 14, CD 34 and CD 45.

S. mutans (ATCC 25175) = experiment: Determination of the minimum bactericidal concentration (MBC); conditions: Streptococcus mutans, ATCC25175; against S. Mutans
Method: A 20 mg/mL compound stock solution in BHI medium is prepared. In a 96-well plate, the compound solution is diluted serially (the concentration is halved at each step) to obtain the following final concentrations after addition of the bacteria suspension: 10 mg/mL; 5 mg/mL; 2.5 mg/mL; 1.25 mg/mL; 0.625 mg/mL; 0.31 mg/mL; 0.15 mg/mL; 0.08 mg/mL; 0.04 mg/mL; 0.02 mg/mL. Wells containing a mixture of penicillin and streptomycin antibiotics are used as a positive control. Compound-free medium is used as a growth control. A volume of bacterial suspension equal to 0.5*10^6 bacteria/mL is added to each well containing the compound and the controls. The dish is incubated at 37° C. for 24 hours. The lowest compound concentration at which no turbidity of the culture medium is evident is defined as MIC. For the calculation of MBC, aliquots equal to 50 μL are taken from the wells showing evident no turbidity of the medium and are plated on BHI agar plates for 48 hours. […] Bacterial suspensions taken from the positive control (growth medium only) and the negative control (growth medium with Ampicilin 100 μg/mL) are also seeded.
In order to test the antibacterial properties of the compounds prepared in Examples 1-8, on colonies of S. mutans (ATCC 25175), a bacterium commonly found in the human oral cavity, a test was set up to determine the minimum inhibitory concentration (MIC) and the minimum bactericidal concentration (MBC) according to the “Determination of minimum inhibitory concentration (MIC)” methods and “Determination of minimum bactericidal concentration (MBC)” described above.

| SMILES | MIC (S. Sanguis (ATCC 10556)) [mg/L] | MIC (S. Aureus (ATCC 25923)) [mg/L] | MIC (E. coli (ATCC25922)) [mg/L] | MIC (S. Mitis (ATCC 49456)) [mg/L] | % Viability 24 h ([1]; 10 μg/mL) [%] | % Viability 72 h ([1]; 10 μg/mL) [%] | % Viability 24 h ([1]; 50 μg/mL) [%] | % Viability 72 h ([1]; 50 μg/mL) [%] | % Viability 24 h ([1]; 100 μg/mL) [%] | % Viability 72 h ([1]; 100 μg/mL) [%] | % Viability 24 h ([1]; 500 μg/mL) [%] | % Viability 72 h ([1]; 500 μg/mL) [%] | MBC (S. mutans (ATCC 25175)) [mg/L] | % Viability 24 h ([1]; 1 μg/mL) [%] | % Viability 72 h ([1]; 1 μg/mL) [%] | % Viability 24 h ([1]; 1 mg/mL) [%] | % Viability 72 h ([1]; 1 mg/mL) [%] | maximum (tested) non-cytotoxic concentration [1] [µg/mL] | other results |
| --- | --- | --- | --- | --- | --- | --- | --- | --- | --- | --- | --- | --- | --- | --- | --- | --- | --- | --- | --- |
| C=C(C)C(=O)OCC[N+](C)(C)CCCCCCCCCCCC[N+](C)(C)CCOC(=O)C(=C)C.[Br-].[Br-] [Example 1] | 310 | 156 | 625 | 310 | 95.3 ± 12.5 | 110.0 ± 13.8 | 105.6 ± 11.2 | 111.0 ± 7.2 | 102.7 ± 7.2 | 122.4 ± 7.0 | 86.6 ± 5.5 | 115.3 ± 11.6 | 300 |  |  |  |  |  | decrease in cell viability [1]: did not show significant signs of decrease in cell viability; % Viability 24 h ([1]; 2 mg/mL): 80.6 ± 5.3%; % Viability 72 h ([1]; 2 mg/mL): 76.9 ± 8.4% |
| C=C(C)C(=O)NCc1cc[n+](CCCCCCCCCCCC[n+]2ccc(CNC(=O)C(=C)C)cc2)cc1.[Br-].[Br-] [Example 7] | 10 | 2.5 | 2.5 | 20 | 105.9 ± 11.9 | 100.6 ± 17.7 | 96.1 ± 10.5 | 86.3 ± 16.4 | 91.7 ± 12.0 | 71.8 ± 13.4 | 91.9 ± 16.8 | 26.5 ± 5.1 | 2.5 | 110.8 ± 15.9 | 97.3 ± 17.5 | 49.1 ± 8.1 | 5.0 ± 2.3 | 50 |  |
| C=C(C)C(=O)OCC[N+](CC)(CC)CCCCCCCCCCCC[N+](CC)(CC)CCOC(=O)C(=C)C.[Br-].[Br-] [Example 5] | 20 | 20 | 78 | 39 | 119.2 ± 6.8 | 69.7 ± 17.0 | 83.4 ± 4.5 | 70.8 ± 17.8 | 95.9 ± 7.2 | 68.8 ± 17.5 | 2.5 ± 1.0 |  | 20 | 124.2 ± 6.3 | 72.6 ± 16.5 |  |  | 100 |  |
| C=C(C)C(=O)Nc1ccc([N+](C)(C)CCCCCCCCCCCC[N+](C)(C)c2ccc(NC(=O)C(C)=O)cc2)cc1.[Br-].[Br-] [Example 6] | 5 | 10 | 2 | 10 | 99.5 ± 13.5 | 97.7 ± 14 | 81.7 ± 8.2 | 71.5 ± 16.3 | 11.3 ± 2.1 | 2.0 ± 0.8 | 1.6 ± 0.9 | 2.6 ± 3.6 | 10 | 95.2 ± 13.2 | 103.2 ± 18.9 | 2.5 ± 0.9 | 3.5 ± 1.5 |  |  |
